From patent US11754547B2, “Biorecognition elements for detection of fungi and bacteria in fuel systems” (priority 2020, dated 2023)

Tests used:
Experiment in all cases: Western blot of phage-displayed peptide BRE binding to biotinylated target peptide
[1] = system: CHI-P1 (SEQ. ID No. 25), Chitinase; set-up: species or system fungi; conditions: phage clone with biotinylated target peptide, streptavidin bead pull-down; FIG. 4
Description: (§1) Recombinant phage clones were selected using X-Gal/IPTG, which produced a blue color on phage infected E. coli colonies. After the amplification of multiple phage isolates carrying a single heptapeptide sequence (i.e., monoclonal phages), genomic DNA was isolated and sequenced to determine the aa sequences of the peptide BREs. Isolated monoclonal phages were sequenced after each round of selection. After four rounds of selection, the phage pool was enriched for target-binding phages with specific sequences. […] The binding of phages displaying specific peptide BREs to the target was assessed by Western blot analysis. Monoclonal target-specific bacteriophages were incubated with biotinylated target peptide epitope under conditions similar to those used in biopanning. The resulting phage-target complexes were recovered using streptavidin-coated magnetic beads, and the phage-target complexes were resolved via SDS-PAGE and detected by Western blot using antibodies against the M13 phage capsid and the biotin molecule attached to the specific target. Western blotting was performed by preparing a 200 μL solution with each of the phage clones at a concentration of 1×10^11 pfu/mL in 1×TBS, pH 7.5. Then, 10 μL of biotinylated target peptide of concentration 1 mg/mL was added to each phage solution and incubated at 25° C. for 1 hr. […]

[2] = system: Gor-Fasciclin (SEQ. ID No. 58), Gordonia-Fasciclin; conditions: phage clone with biotinylated target peptide, streptavidin bead pull-down; FIG. 5
Chain of Gor-Fasciclin (SEQ. ID No. 58), Gordonia-Fasciclin (as listed by the source): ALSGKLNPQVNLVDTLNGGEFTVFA
Description: as §1, with “hr. Phage-biotin target complexes were captured and pull-down with 25 μL of streptavidin-coated beads, and the captured complexes washed five times with 1×TBST. The pelleted complexes were re-suspended in 20 μL of 2× Laemmli Buffer, heated to 95° C. for 5 min, and resolved in a 14% SDS-PAGE gel. Proteins were blotted to a nitrocellulose membrane and blocked with TBST containing 5% BSA. To detect phages, a 1:2000 dilution of rabbit anti-M13 phage antibody (primary antibody) followed by a 1:5000 dilution of alkaline phosphatase (AP)-conjugated goat anti-rabbit antibody was used. For detection of biotinylated target, a 1:2000 dilution of AP-conjugated goat anti-biotin antibody was used. For colorimetric visualization, BCIP/NBT reagent was used.” for “hr.”

[3] = system: ALK-P3 (SEQ. ID No. 1), P450 Alkane Hydroxylase; set-up: species or system fungi; conditions: phage clone with biotinylated target peptide, streptavidin bead pull-down; FIG. 4
Chain of ALK-P3 (SEQ. ID No. 1), P450 Alkane Hydroxylase (as listed by the source): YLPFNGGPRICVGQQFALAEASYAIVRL
Description: as §1

Question: How did the “binding to CHI-P1 (SEQ. ID No. 25) target, Western blot” value [1] turn out when “MPPHGDR (Artificial Sequence Obtained Through Biopanning) [SEQ. ID No. 26]” was run?
Answer: Its value is “specific binding”.

Question: How did the “binding to Gor-Fasciclin (SEQ. ID No. 58) target, Western blot” value [2] turn out when “RSLGYTG (Artificial Sequence Obtained Through Biopanning) [SEQ. ID No. 60]” was run?
Answer: Its value is “specific binding”.

Question: How did the “binding to Gor-Fasciclin (SEQ. ID No. 58) target, Western blot” value [2] turn out when “TWTLARP (Artificial Sequence Obtained Through Biopanning) [SEQ. ID No. 59]” was run?
Answer: The value was “specific binding”.

Question: How did the “binding to ALK-P3 (SEQ. ID No. 1) target, Western blot” value [3] turn out when “WSLGYTG (Artificial Sequence Obtained Through Biopanning) [SEQ. ID No. 2]” was run?
Answer: The value was “specific binding”.

Question: How did the “binding to Gor-Fasciclin (SEQ. ID No. 58) target, Western blot” value [2] turn out when “YVPEWVS (Artificial Sequence Obtained Through Biopanning) [SEQ. ID No. 61]” was run?
Answer: Its value is “specific binding”.
